Measured values from ChEMBL document CHEMBL5058644, “Data for DCP probe JNJ-39758979” (2022).

Legend:
[1] = target: Glycogen synthase kinase-3 beta (Homo sapiens) (UniProt P49841); assay: GSK3β(h) Millipore kinase panel; conditions: Compound concentration 10.0 uM
[2] = target: Interleukin-1 receptor-associated kinase 4 (Homo sapiens) (UniProt Q9NWZ3); assay: IRAK4(h) Millipore kinase panel; conditions: Compound concentration 10.0 uM
[3] = target: Discoidin domain-containing receptor 2 (Homo sapiens) (UniProt Q16832); assay: DDR2(h) Millipore kinase panel; conditions: Compound concentration 10.0 uM
Discoidin domain-containing receptor 2 (Homo sapiens), sequence (Q16832 whole entry, the tested form may be a part): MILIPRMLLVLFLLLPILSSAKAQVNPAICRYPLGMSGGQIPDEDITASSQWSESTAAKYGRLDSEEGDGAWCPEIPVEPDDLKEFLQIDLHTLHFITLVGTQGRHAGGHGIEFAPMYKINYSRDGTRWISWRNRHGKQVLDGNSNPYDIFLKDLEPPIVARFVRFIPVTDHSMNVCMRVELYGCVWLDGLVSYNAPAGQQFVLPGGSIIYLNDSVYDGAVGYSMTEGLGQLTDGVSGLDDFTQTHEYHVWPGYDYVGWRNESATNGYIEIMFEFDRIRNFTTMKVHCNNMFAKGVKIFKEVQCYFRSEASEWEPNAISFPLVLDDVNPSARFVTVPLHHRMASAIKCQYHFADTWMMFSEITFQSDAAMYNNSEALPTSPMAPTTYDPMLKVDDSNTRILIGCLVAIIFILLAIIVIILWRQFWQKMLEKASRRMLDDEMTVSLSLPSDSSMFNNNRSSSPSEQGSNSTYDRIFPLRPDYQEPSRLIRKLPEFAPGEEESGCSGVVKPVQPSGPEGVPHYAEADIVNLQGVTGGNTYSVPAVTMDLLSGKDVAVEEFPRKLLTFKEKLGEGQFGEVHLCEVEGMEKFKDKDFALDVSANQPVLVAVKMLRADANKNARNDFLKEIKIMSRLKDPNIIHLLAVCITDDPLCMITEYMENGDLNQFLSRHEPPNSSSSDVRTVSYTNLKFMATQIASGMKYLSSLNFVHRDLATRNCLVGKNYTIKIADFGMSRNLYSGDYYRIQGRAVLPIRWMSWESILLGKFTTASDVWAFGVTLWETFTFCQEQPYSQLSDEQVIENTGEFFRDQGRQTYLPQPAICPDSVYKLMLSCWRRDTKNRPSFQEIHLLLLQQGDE

[4] = target: Serine/threonine-protein kinase 33 (Homo sapiens) (UniProt Q9BYT3); assay: STK33(h) Millipore kinase panel; conditions: Compound concentration 10.0 uM
[5] = target: Serine/threonine-protein kinase Sgk1 (Homo sapiens) (UniProt O00141); assay: SGK(h) Millipore kinase panel; conditions: Compound concentration 10.0 uM
[6] = target: LIM domain kinase 1 (Homo sapiens) (UniProt P53667); assay: LIMK1(h) Millipore kinase panel; conditions: Compound concentration 10.0 uM
[7] = target: Delta-type opioid receptor (Homo sapiens) (UniProt P41143); assay: delta (h) CEREP panel; conditions: Compound concentration 1.0 uM
[8] = target: Sodium-dependent noradrenaline transporter (Homo sapiens) (UniProt P23975); assay: NE transporter (h) CEREP panel; conditions: Compound concentration 1.0 uM
Sodium-dependent noradrenaline transporter (Homo sapiens), sequence (P23975 whole entry): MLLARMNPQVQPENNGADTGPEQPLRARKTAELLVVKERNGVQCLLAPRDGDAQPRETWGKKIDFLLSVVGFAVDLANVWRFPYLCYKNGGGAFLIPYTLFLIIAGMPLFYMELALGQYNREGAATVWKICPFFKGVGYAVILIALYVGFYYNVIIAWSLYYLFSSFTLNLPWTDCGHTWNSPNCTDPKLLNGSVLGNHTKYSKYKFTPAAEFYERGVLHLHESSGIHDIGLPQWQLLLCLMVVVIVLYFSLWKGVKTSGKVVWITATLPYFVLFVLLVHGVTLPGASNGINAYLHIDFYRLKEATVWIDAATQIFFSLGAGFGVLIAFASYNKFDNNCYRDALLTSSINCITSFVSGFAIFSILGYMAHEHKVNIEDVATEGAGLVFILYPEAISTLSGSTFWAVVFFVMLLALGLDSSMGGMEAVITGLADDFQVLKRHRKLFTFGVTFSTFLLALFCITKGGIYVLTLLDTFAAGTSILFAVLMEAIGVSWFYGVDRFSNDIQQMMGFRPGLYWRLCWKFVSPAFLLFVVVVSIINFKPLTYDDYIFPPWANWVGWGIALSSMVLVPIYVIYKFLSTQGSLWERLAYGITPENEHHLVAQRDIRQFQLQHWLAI

[9] = target: Serine/threonine-protein kinase D2 (Homo sapiens) (UniProt Q9BZL6); assay: PKD2(h) Millipore kinase panel; conditions: Compound concentration 10.0 uM
[10] = target: Serine/threonine-protein kinase pim-1 (Homo sapiens) (UniProt P11309); assay: Pim-1(h) Millipore kinase panel; conditions: Compound concentration 10.0 uM
[11] = Ca2+ channel CEREP panel; conditions: Compound concentration 1.0 uM
[12] = target: RAC-alpha serine/threonine-protein kinase (Homo sapiens) (UniProt P31749); assay: PKBα(h) Millipore kinase panel; conditions: Compound concentration 10.0 uM
RAC-alpha serine/threonine-protein kinase (Homo sapiens), sequence (P31749 whole entry): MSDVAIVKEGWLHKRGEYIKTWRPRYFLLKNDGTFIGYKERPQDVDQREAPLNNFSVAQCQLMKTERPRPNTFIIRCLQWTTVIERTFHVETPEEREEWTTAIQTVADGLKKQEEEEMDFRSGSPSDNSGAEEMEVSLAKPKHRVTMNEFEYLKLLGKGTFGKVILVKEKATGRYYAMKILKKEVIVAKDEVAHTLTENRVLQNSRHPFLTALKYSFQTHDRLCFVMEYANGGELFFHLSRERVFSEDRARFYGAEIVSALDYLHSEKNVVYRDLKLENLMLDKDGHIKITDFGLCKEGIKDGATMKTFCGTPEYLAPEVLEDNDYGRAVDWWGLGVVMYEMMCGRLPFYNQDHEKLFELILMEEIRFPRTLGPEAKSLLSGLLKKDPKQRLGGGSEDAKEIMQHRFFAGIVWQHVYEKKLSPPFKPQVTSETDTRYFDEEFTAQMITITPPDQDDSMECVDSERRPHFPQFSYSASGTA

[13] = target: Endothelin-1 receptor (Homo sapiens) (UniProt P25101); assay: ETA (h) CEREP panel; conditions: Compound concentration 1.0 uM
Endothelin-1 receptor (Homo sapiens), sequence (P25101 whole entry): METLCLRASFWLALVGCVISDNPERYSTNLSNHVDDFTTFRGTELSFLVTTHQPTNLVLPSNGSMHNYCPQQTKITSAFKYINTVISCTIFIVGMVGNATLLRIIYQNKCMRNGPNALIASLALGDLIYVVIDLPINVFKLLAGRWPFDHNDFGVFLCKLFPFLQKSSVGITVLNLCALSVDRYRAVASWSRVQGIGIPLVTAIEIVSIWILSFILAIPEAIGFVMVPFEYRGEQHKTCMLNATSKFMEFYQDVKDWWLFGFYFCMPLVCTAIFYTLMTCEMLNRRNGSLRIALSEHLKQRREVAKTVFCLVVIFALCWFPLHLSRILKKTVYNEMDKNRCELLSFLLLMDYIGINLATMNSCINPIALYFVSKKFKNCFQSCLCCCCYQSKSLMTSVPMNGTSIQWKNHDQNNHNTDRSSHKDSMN

[14] = target: Serine/threonine-protein kinase DCLK2 (Homo sapiens) (UniProt Q8N568); assay: DCAMKL2(h) Millipore kinase panel; conditions: Compound concentration 10.0 uM
[15] = target: Serine/threonine-protein kinase Chk2 (Homo sapiens) (UniProt O96017); assay: CHK2(h) Millipore kinase panel; conditions: Compound concentration 10.0 uM
[16] = target: Histamine H1 receptor (Homo sapiens) (UniProt P35367); assay: H1 (h) CEREP panel; conditions: Compound concentration 1.0 uM
[17] = target: Death-associated protein kinase 1 (Homo sapiens) (UniProt P53355); assay: DAPK1(h) Millipore kinase panel; conditions: Compound concentration 10.0 uM
[18] = sst (non-selective) CEREP panel; conditions: Compound concentration 1.0 uM
[19] = GABA (non-selective) CEREP panel; conditions: Compound concentration 1.0 uM
[20] = target: Ribosomal protein S6 kinase beta-1 (Homo sapiens) (UniProt P23443); assay: p70S6K(h) Millipore kinase panel; conditions: Compound concentration 10.0 uM
[21] = target: High affinity nerve growth factor receptor (Homo sapiens) (UniProt P04629); assay: TrkA(h) Millipore kinase panel; conditions: Compound concentration 10.0 uM
[22] = target: Mitogen-activated protein kinase 8 (Homo sapiens) (UniProt P45983); assay: JNK1α1(h) Millipore kinase panel; conditions: Compound concentration 10.0 uM
[23] = target: Tyrosine-protein kinase BTK (Homo sapiens) (UniProt Q06187); assay: BTK(h) Millipore kinase panel; conditions: Compound concentration 10.0 uM
[24] = target: cAMP-dependent protein kinase catalytic subunit alpha (Homo sapiens) (UniProt P17612); assay: PKA(h) Millipore kinase panel; conditions: Compound concentration 10.0 uM
[25] = target: Vasoactive intestinal polypeptide receptor 1 (Homo sapiens) (UniProt P32241); assay: VIP1 (h) (VPAC1) CEREP panel; conditions: Compound concentration 1.0 uM
Homo sapiens = species on record: Homo sapiens; assay: CK2(h) Millipore kinase panel; conditions: Compound concentration 10.0 uM
[26] = target: Glycogen synthase kinase-3 alpha (Homo sapiens) (UniProt P49840); assay: GSK3α(h) Millipore kinase panel; conditions: Compound concentration 10.0 uM
Glycogen synthase kinase-3 alpha (Homo sapiens), sequence (P49840 2-483 limits assumed): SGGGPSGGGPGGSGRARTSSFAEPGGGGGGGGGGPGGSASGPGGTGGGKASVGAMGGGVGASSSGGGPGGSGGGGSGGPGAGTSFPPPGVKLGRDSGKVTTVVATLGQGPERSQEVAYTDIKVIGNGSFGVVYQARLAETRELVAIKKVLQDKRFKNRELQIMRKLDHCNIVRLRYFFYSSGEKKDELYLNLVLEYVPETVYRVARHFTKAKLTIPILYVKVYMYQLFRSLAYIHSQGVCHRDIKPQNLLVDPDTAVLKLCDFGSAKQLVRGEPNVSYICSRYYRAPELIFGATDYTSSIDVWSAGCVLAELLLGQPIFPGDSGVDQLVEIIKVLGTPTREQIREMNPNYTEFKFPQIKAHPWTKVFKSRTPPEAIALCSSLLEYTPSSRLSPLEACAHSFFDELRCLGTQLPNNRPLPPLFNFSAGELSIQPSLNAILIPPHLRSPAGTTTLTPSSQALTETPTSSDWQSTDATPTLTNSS

[27] = target: Muscarinic acetylcholine receptor M3 (Homo sapiens) (UniProt P20309); assay: M3 (h) CEREP panel; conditions: Compound concentration 1.0 uM
[28] = target: Beta-1 adrenergic receptor (Homo sapiens) (UniProt P08588); assay: beta 1 (h) CEREP panel; conditions: Compound concentration 1.0 uM
Beta-1 adrenergic receptor (Homo sapiens), sequence (P08588 whole entry, looked up): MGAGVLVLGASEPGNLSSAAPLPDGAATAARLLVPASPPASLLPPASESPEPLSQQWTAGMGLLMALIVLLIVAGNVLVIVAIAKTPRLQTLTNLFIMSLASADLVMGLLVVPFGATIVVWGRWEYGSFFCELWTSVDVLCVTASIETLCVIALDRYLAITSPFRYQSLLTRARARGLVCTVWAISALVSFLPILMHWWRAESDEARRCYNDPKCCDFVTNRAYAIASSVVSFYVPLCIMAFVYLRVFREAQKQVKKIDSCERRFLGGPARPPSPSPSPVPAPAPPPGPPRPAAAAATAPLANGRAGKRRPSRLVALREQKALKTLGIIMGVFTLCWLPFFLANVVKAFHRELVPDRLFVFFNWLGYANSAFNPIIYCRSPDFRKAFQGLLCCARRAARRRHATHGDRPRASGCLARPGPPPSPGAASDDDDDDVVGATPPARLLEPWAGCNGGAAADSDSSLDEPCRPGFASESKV

[29] = target: ALK tyrosine kinase receptor (Homo sapiens) (UniProt Q9UM73); assay: ALK(h) Millipore kinase panel; conditions: Compound concentration 10.0 uM
[30] = target: Tyrosine-protein kinase CSK (Homo sapiens) (UniProt P41240); assay: CSK(h) Millipore kinase panel; conditions: Compound concentration 10.0 uM
[31] = target: Mitogen-activated protein kinase kinase kinase 9 (Homo sapiens) (UniProt P80192); assay: MLK1(h) Millipore kinase panel; conditions: Compound concentration 10.0 uM
[32] = target: Serine/threonine-protein kinase Nek2 (Homo sapiens) (UniProt P51955); assay: NEK2(h) Millipore kinase panel; conditions: Compound concentration 10.0 uM
[33] = target: D(1A) dopamine receptor (Homo sapiens) (UniProt P21728); assay: D1 (h) CEREP panel; conditions: Compound concentration 1.0 uM
D(1A) dopamine receptor (Homo sapiens), sequence (P21728 whole entry): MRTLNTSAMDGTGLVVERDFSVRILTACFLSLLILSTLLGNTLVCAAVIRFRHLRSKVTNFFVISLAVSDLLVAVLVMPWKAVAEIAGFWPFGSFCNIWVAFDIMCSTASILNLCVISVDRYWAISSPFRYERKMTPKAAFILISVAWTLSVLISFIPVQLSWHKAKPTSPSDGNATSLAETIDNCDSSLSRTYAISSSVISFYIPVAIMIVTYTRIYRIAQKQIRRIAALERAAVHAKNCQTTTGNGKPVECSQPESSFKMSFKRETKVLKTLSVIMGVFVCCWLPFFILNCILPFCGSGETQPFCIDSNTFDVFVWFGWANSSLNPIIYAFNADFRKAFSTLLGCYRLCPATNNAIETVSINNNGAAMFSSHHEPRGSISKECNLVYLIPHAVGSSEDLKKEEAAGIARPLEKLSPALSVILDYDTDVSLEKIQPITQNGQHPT

[34] = target: Protein kinase C alpha type (Homo sapiens) (UniProt P17252); assay: PKCα(h) Millipore kinase panel; conditions: Compound concentration 10.0 uM
[35] = target: Melanocortin receptor 4 (Homo sapiens) (UniProt P32245); assay: MC4 (h) CEREP panel; conditions: Compound concentration 1.0 uM
[36] = Na+ channel (site 2) CEREP panel; conditions: Compound concentration 1.0 uM
[37] = target: Proto-oncogene tyrosine-protein kinase receptor Ret (Homo sapiens) (UniProt P07949); assay: Ret(h) Millipore kinase panel; conditions: Compound concentration 10.0 uM
[38] = target: Dual specificity protein kinase CLK3 (Homo sapiens) (UniProt P49761); assay: CLK3(h) Millipore kinase panel; conditions: Compound concentration 10.0 uM
[39] = target: Serine/threonine-protein kinase PLK3 (Homo sapiens) (UniProt Q9H4B4); assay: Plk3(h) Millipore kinase panel; conditions: Compound concentration 10.0 uM
Serine/threonine-protein kinase PLK3 (Homo sapiens), sequence (Q9H4B4 whole entry, looked up): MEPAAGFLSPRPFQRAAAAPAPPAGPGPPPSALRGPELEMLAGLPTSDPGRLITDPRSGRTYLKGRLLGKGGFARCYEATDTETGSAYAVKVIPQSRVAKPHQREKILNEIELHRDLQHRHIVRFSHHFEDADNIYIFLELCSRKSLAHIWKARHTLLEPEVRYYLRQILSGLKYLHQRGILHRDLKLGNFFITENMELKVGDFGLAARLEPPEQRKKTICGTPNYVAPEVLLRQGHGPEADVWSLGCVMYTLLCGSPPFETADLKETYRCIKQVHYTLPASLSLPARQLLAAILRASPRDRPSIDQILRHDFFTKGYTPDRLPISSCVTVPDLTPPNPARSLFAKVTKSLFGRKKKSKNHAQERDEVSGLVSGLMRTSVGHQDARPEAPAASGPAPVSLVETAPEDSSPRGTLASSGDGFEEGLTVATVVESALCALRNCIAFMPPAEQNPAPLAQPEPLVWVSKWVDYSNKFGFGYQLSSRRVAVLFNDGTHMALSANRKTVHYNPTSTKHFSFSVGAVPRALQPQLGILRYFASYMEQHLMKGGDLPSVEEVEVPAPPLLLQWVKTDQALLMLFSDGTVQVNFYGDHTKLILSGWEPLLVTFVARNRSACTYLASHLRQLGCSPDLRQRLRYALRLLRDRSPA

[40] = target: Muscarinic acetylcholine receptor M1 (Homo sapiens) (UniProt P11229); assay: M1 (h) CEREP panel; conditions: Compound concentration 1.0 uM
[41] = target: Tyrosine-protein kinase JAK2 (Homo sapiens) (UniProt O60674); assay: JAK2(h) Millipore kinase panel; conditions: Compound concentration 10.0 uM
[42] = target: cGMP-dependent protein kinase 1 (Homo sapiens) (UniProt Q13976); assay: PKG1α(h) Millipore kinase panel; conditions: Compound concentration 10.0 uM
[43] = target: 5-hydroxytryptamine receptor 5A (Homo sapiens) (UniProt P47898); assay: 5-HT5A (h) (5-ht5a) CEREP panel; conditions: Compound concentration 1.0 uM
[44] = target: Adenosine receptor A3 (Homo sapiens) (UniProt P0DMS8); assay: A3 (h) CEREP panel; conditions: Compound concentration 1.0 uM
[45] = target: 5-hydroxytryptamine receptor 1B (Homo sapiens) (UniProt P28222); assay: 5-HT1B CEREP panel; conditions: Compound concentration 1.0 uM
[46] = target: Neuromedin-K receptor (Homo sapiens) (UniProt P29371); assay: NK3 (h) CEREP panel; conditions: Compound concentration 1.0 uM
[47] = target: Substance-K receptor (Homo sapiens) (UniProt P21452); assay: NK2 (h) CEREP panel; conditions: Compound concentration 1.0 uM
[48] = target: Adrenergic receptor alpha-2 (Homo sapiens) (UniProt P08913+P18825+P18089); assay: alpha 2 (non-selective) CEREP panel; conditions: Compound concentration 1.0 uM
[49] = target: Nociceptin receptor (Homo sapiens) (UniProt P41146); assay: ORL1 (h) CEREP panel; conditions: Compound concentration 1.0 uM

Measured: inhibition

Glycogen synthase kinase-3 beta (Homo sapiens), sequence (P49841 whole entry, looked up): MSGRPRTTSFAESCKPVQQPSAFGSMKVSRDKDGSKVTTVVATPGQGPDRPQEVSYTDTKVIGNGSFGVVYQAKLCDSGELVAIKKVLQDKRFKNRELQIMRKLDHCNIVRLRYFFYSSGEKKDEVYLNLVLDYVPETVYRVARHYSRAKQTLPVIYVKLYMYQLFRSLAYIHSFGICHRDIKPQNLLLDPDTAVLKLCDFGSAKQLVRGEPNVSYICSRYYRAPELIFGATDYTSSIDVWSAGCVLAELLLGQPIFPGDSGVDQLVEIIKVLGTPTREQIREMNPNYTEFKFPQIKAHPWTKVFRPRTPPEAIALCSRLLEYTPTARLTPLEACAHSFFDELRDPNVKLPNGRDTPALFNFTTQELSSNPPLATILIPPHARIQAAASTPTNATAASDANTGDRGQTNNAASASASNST

CC(C)c1cc(N2CC[C@@H](N)C2)nc(N)n1
inactive: [1] 0% | [2] -5% | [3] -8% | [4] -4% | [5] 7% | [6] -10% | [7] < 10% | [8] 10% | [9] 8% | [10] 3% | [11] < 10% | [12] -7% | [13] 15% | [14] 1% | [15] 4% | [16] < 10% | [17] -3% | [18] < 10% | [19] < 10% | [20] 8% | [21] 13% | [22] 10% | [23] -9% | [24] -2% | [25] < 10% | Homo sapiens 4% | [26] 8% | [27] 64% | [28] < 10% | [29] 12% | [30] -9% | [31] 6% | [32] -10% | [33] < 10% | [34] 23% | [35] < 10% | [36] < 10% | [37] -6% | [38] 9% | [39] -5% | [40] 19% | [41] -7% | [42] -2% | [43] < 10% | [44] < 10% | [45] < 10% | [46] < 10% | [47] < 10% | [48] 18% | [49] < 10%
